Measurements reported in patent US20250249025A1, “DRUG DELIVERY CARRIER UTILIZING PROPERTY OF D-ALLOSE BEING UPTAKEN BY CANCER CELL, DRUG DELIVERY METHOD, AND COMPOSITION FOR TREATING RENAL CELL CARCINOMA” (NATIONAL UNIVERSITY CORPORATION KAGAWA UNIVERSITY, priority 2019, published 2025).

Columns and labels:
Format in all cases: cell-based
[1] = tested on: human renal cell carcinoma cell line Caki-II; assay: Rare sugar uptake experiment, sugar content in disrupted cell suspension of Caki-II; conditions: Caki-II, 48 hours; for D-glucose content in cell: named sugar added to RPMI-1640 at 10 mM, HPLC after ABEE labeling
Method: (§1) An uptake amount of a rare sugar, which had been added to a medium, into carcinoma cells was analyzed using the cell lines of three types of cancers. As the rare sugar, four kinds, that is, D-allose, D-allulose (D-psicose), L-allulose (L-psicose), and allitol were used, while D-glucose and fructose were used as a monosaccharide which was not a rare sugar.
(§2) Cells of each of the cell lines were cultured in RPMI-1640 media and during culturing, six sugars were each added to the resulting media and cultured. After culturing, an amount of each sugar taken up into the cells was analyzed. The medium to which no sugar was added during culturing was used as a control.
(§3) Used were human bladder carcinoma cell lines (RT112, 253), and J82), human prostatic carcinoma cell lines (LNCa, Du145, and PC-3), and human renal cell carcinoma cell lines (ACHN, Caki-I, and Caki-II).
(§4) After cells were cultured in RPMI-1640 (2000 mg D-glucose/L) media, the above monosaccharides and rare sugars were added to the resulting media, respectively. Described specifically, they were following seven combinations: RPMI-1640 alone (control), RPMI-1640+D-glucose, RPMI-1640+L-allulose, RPMI-1640+D-allulose, RPMI-1640+D-fructose, RPMI-1640+D-allose, and RPMI-1640+D-allitol. The final concentration of the sugar in the medium was adjusted to 10 mM and no sugar was added in the control.
(§5) Five-ml portions of a 3.0×10^4 cells/ml cell suspension prepared using RPMI-1640 were seeded in dishes having a diameter of 6 cm (1.5×10^5 cells/dish) and cultured for 24 hours in the RPMI-1640 medium containing 2000 mg/l of D-glucose as a nutrient source. Twenty-four hours later, the media were changed to the culture solutions containing the monosaccharides and rare sugars described above in 2), respectively, followed by culturing for 48 hours.
(§6) After culturing for 48 hours, the attached human carcinoma cells were mechanically separated and collected in a Spitz tube together with the culture solution and floating cells. After the supernatant formed by centrifugation (4° C., 1200 rpm, and 5 minutes) was removed to obtain cell pellets alone, 5 ml of a phosphate buffer physiological saline (PBS) was added for the purpose of washing to obtain a cell suspension of the cell pellets. A gain, the resulting cell suspension was centrifuged at 4° C. and 1200 rpm for 5 minutes and the supernatant was removed. To the cell pellets after washing was added 1 ml of pure water to suspend them therein. Ultrasonic disruption (intensity: 40%, 30 seconds) was then performed and the monosaccharide in the disrupted cell suspension was labeled with ABEE, followed by analysis by HPLC. From the area thus obtained, the sugar content in the cells was determined using a calibration curve. With respect to the ketose, two peaks were found after labeling with ABEE so that the sugar content in the cells was determined from the calibration curves of both peaks.

[2] = tested on: human prostate carcinoma cell line Du145; assay: Rare sugar uptake experiment, sugar content in disrupted cell suspension of Du145; conditions: Du145, 48 hours; for D-glucose content in cell: named sugar added to RPMI-1640 at 10 mM, HPLC after ABEE labeling
Method: as §1, §2, §3, §4, §5, §6

[3] = tested on: human prostate carcinoma cell line PC-3; assay: Rare sugar uptake experiment, sugar content in disrupted cell suspension of PC-3; conditions: PC-3, 48 hours; for D-glucose content in cell: named sugar added to RPMI-1640 at 10 mM, HPLC after ABEE labeling
Method: as §1, §2, §3, §4, §5, §6

[4] = tested on: human bladder carcinoma cell line 253J; assay: Rare sugar uptake experiment, sugar content in disrupted cell suspension of 253J; conditions: 253J, 48 hours; for D-glucose content in cell: named sugar added to RPMI-1640 at 10 mM, HPLC after ABEE labeling
Method: as §1, §2, §3, §4, §5, §6

[5] = tested on: human prostate carcinoma cell line LNCa; assay: Rare sugar uptake experiment, sugar content in disrupted cell suspension of LNCa; conditions: LNCa, 48 hours; for D-glucose content in cell: named sugar added to RPMI-1640 at 10 mM, HPLC after ABEE labeling
Method: as §1, §2, §3, §4, §5, §6

[6] = tested on: human bladder carcinoma cell line RT112; assay: Rare sugar uptake experiment, sugar content in disrupted cell suspension of RT112; conditions: RT112, 48 hours; for D-glucose content in cell: named sugar added to RPMI-1640 at 10 mM, HPLC after ABEE labeling
Method: as §1, §2, §3, §4, §5, §6

[7] = tested on: human bladder carcinoma cell line J82; assay: Rare sugar uptake experiment, sugar content in disrupted cell suspension of J82; conditions: J82, 48 hours; for D-glucose content in cell: named sugar added to RPMI-1640 at 10 mM, HPLC after ABEE labeling
Method: as §1, §2, §3, §4, §5, §6

[8] = tested on: human renal cell carcinoma cell line ACHN; assay: Rare sugar uptake experiment, sugar content in disrupted cell suspension of ACHN; conditions: ACHN, 48 hours; for D-glucose content in cell: named sugar added to RPMI-1640 at 10 mM, HPLC after ABEE labeling
Method: as §1, §2, §3, §4, §5, §6

[9] = tested on: human renal cell carcinoma cell line Caki-I; assay: Rare sugar uptake experiment, sugar content in disrupted cell suspension of Caki-I; conditions: Caki-I, 48 hours; for D-glucose content in cell: named sugar added to RPMI-1640 at 10 mM, HPLC after ABEE labeling
Method: as §1, §2, §3, §4, §5, §6

[10] = sugar added to RPMI-1640 at 10 mM, ketoses: range from two peaks

SMILES | D-glucose content in cell [1] [µg] | D-glucose content in cell [2] [µg] | D-glucose content in cell [3] [µg] | D-glucose content in cell [4] [µg] | D-glucose content in cell [5] [µg] | D-glucose content in cell [6] [µg] | D-glucose content in cell [7] [µg] | D-glucose content in cell [8] [µg] | D-glucose content in cell [9] [µg] | Content in cell of the added sugar [1, 10] [µg] | Content in cell of the added sugar [2, 10] [µg] | Content in cell of the added sugar [3, 10] [µg] | Content in cell of the added sugar [4, 10] [µg] | Content in cell of the added sugar [5, 10] [µg] | Content in cell of the added sugar [6, 10] [µg] | Content in cell of the added sugar [7, 10] [µg] | Content in cell of the added sugar [8, 10] [µg] | Content in cell of the added sugar [9, 10] [µg]
O=C(CO)[C@H](O)[C@H](O)[C@H](O)CO [D-allulose] | 3.1 | 3.9 | 1.6 | 0.6 | 7.5 | 3.4 | 2.1 | 1.9 | 2.3 |  |  |  |  |  |  |  |  | 
O=C(CO)[C@@H](O)[C@H](O)[C@H](O)CO [D-fructose] | 3.6 | 4.2 | 2.7 | 3.3 | 4.1 | 4.4 | 2.7 | 2.1 | 2.5 | 20.4 to 21.3 | 12.9 to 17.0 | 16.5 to 20.1 | 0.0 | 0.0 | 12.7 to 15.7 | 11.1 to 15.0 | 16.8 to 19.0 | 16.7 to 20.7
O=C[C@H](O)[C@@H](O)[C@H](O)[C@H](O)CO [D-glucose] | 8.4 | 4.4 | 6.7 | 4.0 | 6.5 | 16.7 | 7.2 | 5.6 | 4.4 |  |  |  |  |  |  |  |  | 
O=C(CO)[C@@H](O)[C@@H](O)[C@@H](O)CO [L-allulose] | 1.7 | 2.5 | 1.5 | 0.5 | 10.2 | 3.9 | 1.9 | 2.1 | 2.3 |  |  |  |  |  |  |  |  | 
OC[C@@H](O)[C@@H](O)[C@@H](O)[C@@H](O)CO [allitol] | 4.3 | 4.5 | 2.1 | 0.5 | 9.2 | 3.6 | 2.4 | 1.8 | 2.4 |  |  |  |  |  |  |  |  | 
